The values that follow come from US9260467B2, “Sialic acid dimers” (priority 2011, dated 2016).

Structures are written as SMILES.

In the experiment the target is T1, Siglec-2 (CD22) (Homo sapiens, UniProt P20273).
T1 sequence (P20273 20-847): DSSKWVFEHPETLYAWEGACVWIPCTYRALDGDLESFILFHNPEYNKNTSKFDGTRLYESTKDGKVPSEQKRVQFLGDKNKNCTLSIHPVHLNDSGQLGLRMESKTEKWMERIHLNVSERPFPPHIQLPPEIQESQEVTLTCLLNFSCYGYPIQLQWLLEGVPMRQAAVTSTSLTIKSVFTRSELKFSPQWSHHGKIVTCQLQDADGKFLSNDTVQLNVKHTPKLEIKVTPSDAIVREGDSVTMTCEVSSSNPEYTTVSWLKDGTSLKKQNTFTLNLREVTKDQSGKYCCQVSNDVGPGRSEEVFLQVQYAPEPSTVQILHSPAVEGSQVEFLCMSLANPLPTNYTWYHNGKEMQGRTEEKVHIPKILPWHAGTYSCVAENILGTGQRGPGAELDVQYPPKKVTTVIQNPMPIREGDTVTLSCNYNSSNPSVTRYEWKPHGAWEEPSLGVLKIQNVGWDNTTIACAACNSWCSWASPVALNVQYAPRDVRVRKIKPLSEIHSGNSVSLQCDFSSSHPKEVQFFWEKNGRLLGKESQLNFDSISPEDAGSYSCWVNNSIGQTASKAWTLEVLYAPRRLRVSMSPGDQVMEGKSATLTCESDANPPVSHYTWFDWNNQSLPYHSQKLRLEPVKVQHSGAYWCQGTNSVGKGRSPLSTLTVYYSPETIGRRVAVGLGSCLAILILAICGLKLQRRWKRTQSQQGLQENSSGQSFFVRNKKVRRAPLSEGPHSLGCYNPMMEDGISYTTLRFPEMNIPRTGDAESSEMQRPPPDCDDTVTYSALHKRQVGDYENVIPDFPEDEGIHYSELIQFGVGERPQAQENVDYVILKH
In words: new affinity assay: displacement of biotinylated compound 155 from sialidase-treated Daudi cells, FACS with streptavidin-PE. It counts as binding. The arrangement: endogenous in cells; host or cells: Daudi (human B-cell lymphoma line). As to conditions: Table II; rIP values set relative to compound 38; Daudi cells, displacement of compound 155. The protocol:
To determine the affinity of the compound of the formula (I), approximately 5×10^6 to 2×10^8 cells of the human B-cell lymphoma line “Daudi” were incubated with sialidase (A. ureafaciens) at 37° C. for 1 h (final concentration 0.1 unit/ml). […] Batches of 1-2×10^6 cells were transferred to sample vessels, and incubated on ice for 15 min with serial concentrations (10-fold dilutions, 1 mM to 1×10^−7 mM) of the substance under measurement (inhibitor). The reaction volume was 50 μl. Then 50 microliters of compound 155 (4-micromolar) were added, and incubation took place for 20 min Washing with FACS buffer (PBS, 0.1 BSA, 0.01% sodium azide) was followed by incubation with streptavidin-PE in the dark for 15 min, followed by washing and measurement of the bound amount of […] via the streptavidin-PE in the FACS. For the determination of 0% displacement of the compound 155, cells without inhibitor were measured. For the determination of 100% displacement, cells were measured without compound 155 and without inhibitor. For each assay, four substances and one reference were measured. The IC50 values determined in each assay were subsequently converted into values of rIP (relative Inhibitory Potency). […]
With `CC(=O)N[C@H]1[C@H]([C@H](O)[C@H](O)CNC(=O)c2ccc(-c3ccccc3)cc2)O[C@@](OCCCSCCNCc2ccc(CNCCSCCCO[C@]3(C(=O)[O-])C[C@H](O)[C@@H](NC(C)=O)[C@H]([C@H](O)[C@H](O)CNC(=O)c4ccc(-c5ccccc5)cc4)O3)cc2)(C(=O)[O-])C[C@@H]1O.[Na+].[Na+]` [Compound 52], the rIP was determined as 31. To `CC(=O)N[C@H]1[C@H]([C@H](O)[C@H](O)CNC(=O)c2ccc(-c3ccccc3)cc2)O[C@@](OCCCSCCNC(=O)c2ccc(NC(=O)CCSCCCO[C@]3(C(=O)[O-])C[C@H](O)[C@@H](NC(C)=O)[C@H]([C@H](O)[C@H](O)CNC(=O)c4ccc(-c5ccccc5)cc4)O3)cc2)(C(=O)[O-])C[C@@H]1O.[Na+].[Na+]` [Compound 54] belongs 7092. The figure for `CC(=O)N[C@H]1[C@H]([C@H](O)[C@H](O)CNC(=O)c2ccc(C3CCCCC3)cc2)O[C@@](OCCCSCCNC(=O)c2ccc(C(=O)NCCSCCCO[C@]3(C(=O)[O-])C[C@H](O)[C@@H](NC(C)=O)[C@H]([C@H](O)[C@H](O)CNC(=O)c4ccc(C5CCCCC5)cc4)O3)cc2)(C(=O)[O-])C[C@@H]1O.[Na+].[Na+]` [Compound 57] is 22; for `CC(=O)N[C@H]1[C@H]([C@H](O)[C@H](O)CNC(=O)c2ccc(C3CCCCC3)cc2)O[C@@](OCCCSCCNC(=O)CCCCC(=O)NCCSCCCO[C@]2(C(=O)[O-])C[C@H](O)[C@@H](NC(C)=O)[C@H]([C@H](O)[C@H](O)CNC(=O)c3ccc(C4CCCCC4)cc3)O2)(C(=O)[O-])C[C@@H]1O.[Na+].[Na+]` [Compound 58] it is 24; for `CC(=O)N[C@H]1[C@H]([C@H](O)[C@H](O)CNC(=O)c2ccc(-c3cccs3)s2)O[C@@](OCCCSCCNC(=O)c2ccc(C(=O)NCCSCCCO[C@]3(C(=O)[O-])C[C@H](O)[C@@H](NC(C)=O)[C@H]([C@H](O)[C@H](O)CNC(=O)c4ccc(-c5cccs5)s4)O3)cc2)(C(=O)[O-])C[C@@H]1O.[Na+].[Na+]` [Compound 62] it is 203. The figure for `CC(=O)N[C@H]1[C@H]([C@H](O)[C@H](O)CNC(=O)c2ccc(Oc3ccccc3)cc2)O[C@@](OCCCSCCNC(=O)c2ccc(C(=O)NCCSCCCO[C@]3(C(=O)[O-])C[C@H](O)[C@@H](NC(C)=O)[C@H]([C@H](O)[C@H](O)CNC(=O)c4ccc(Oc5ccccc5)cc4)O3)cc2)(C(=O)[O-])C[C@@H]1O.[Na+].[Na+]` [Compound 63] is 20; for `CC(=O)N[C@H]1[C@H]([C@H](O)[C@H](O)CNC(=O)c2ccc(-c3ccccc3)s2)O[C@@](OCCCSCCNC(=O)c2ccc(C(=O)NCCSCCCO[C@]3(C(=O)[O-])C[C@H](O)[C@@H](NC(C)=O)[C@H]([C@H](O)[C@H](O)CNC(=O)c4ccc(-c5ccccc5)s4)O3)cc2)(C(=O)[O-])C[C@@H]1O.[Na+].[Na+]` [Compound 65] it is 106. As for `CC(=O)N[C@H]1[C@H]([C@H](O)[C@H](O)CNC(=O)Cc2ccc3ccccc3c2)O[C@@](OCCCSCCNC(=O)c2ccc(C(=O)NCCSCCCO[C@]3(C(=O)[O-])C[C@H](O)[C@@H](NC(C)=O)[C@H]([C@H](O)[C@H](O)CNC(=O)Cc4ccc5ccccc5c4)O3)cc2)(C(=O)[O-])C[C@@H]1O.[Na+].[Na+]` [Compound 66], the rIP stood at 197. To `CC(=O)N[C@H]1[C@H]([C@H](O)[C@H](O)CNC(=O)c2ccc(-c3ccc(O)cc3)cc2)O[C@@](OCCCSCCNC(=O)c2ccc(C(=O)NCCSCCCO[C@]3(C(=O)[O-])C[C@H](O)[C@@H](NC(C)=O)[C@H]([C@H](O)[C@H](O)CNC(=O)c4ccc(-c5ccc(O)cc5)cc4)O3)cc2)(C(=O)[O-])C[C@@H]1O.[Na+].[Na+]` [Compound 67] belongs 1959.

`CC(=O)N[C@H]1[C@H]([C@H](O)[C@H](O)CNC(=O)c2ccc(-c3ccc(C(=O)[O-])cc3)cc2)O[C@@](OCCCSCCNC(=O)c2ccc(C(=O)NCCSCCCO[C@]3(C(=O)[O-])C[C@H](O)[C@@H](NC(C)=O)[C@H]([C@H](O)[C@H](O)CNC(=O)c4ccc(-c5ccc(C(=O)[O-])cc5)cc4)O3)cc2)(C(=O)[O-])C[C@@H]1O.[Na+].[Na+].[Na+].[Na+]` [Compound 68] registered a rIP of 5. To `CC(=O)N[C@H]1[C@H]([C@H](O)[C@H](O)CNC(=O)c2ccc(-c3ccc([N+](=O)[O-])cc3[N+](=O)[O-])c([N+](=O)[O-])c2)O[C@@](OCCCSCCNC(=O)c2ccc(C(=O)NCCSCCCO[C@]3(C(=O)[O-])C[C@H](O)[C@@H](NC(C)=O)[C@H]([C@H](O)[C@H](O)CNC(=O)c4ccc(-c5ccc([N+](=O)[O-])cc5[N+](=O)[O-])c([N+](=O)[O-])c4)O3)cc2)(C(=O)[O-])C[C@@H]1O.[Na+].[Na+]` [Compound 69] belongs 14. In turn, `CC(=O)N[C@H]1[C@H]([C@H](O)[C@H](O)CNC(=O)c2cc3ccccc3s2)O[C@@](OCCCSCCNC(=O)c2ccc(C(=O)NCCSCCCO[C@]3(C(=O)[O-])C[C@H](O)[C@@H](NC(C)=O)[C@H]([C@H](O)[C@H](O)CNC(=O)c4cc5ccccc5s4)O3)cc2)(C(=O)[O-])C[C@@H]1O.[Na+].[Na+]` [Compound 70] showed a rIP of 137. To `CC(=O)N[C@H]1[C@H]([C@H](O)[C@H](O)CNC(=O)c2ccc(C(F)(F)F)cc2)O[C@@](OCCCSCCNC(=O)c2ccc(C(=O)NCCSCCCO[C@]3(C(=O)[O-])C[C@H](O)[C@@H](NC(C)=O)[C@H]([C@H](O)[C@H](O)CNC(=O)c4ccc(C(F)(F)F)cc4)O3)cc2)(C(=O)[O-])C[C@@H]1O.[Na+].[Na+]` [Compound 71] belongs 32; to `CC(=O)N[C@H]1[C@H]([C@H](O)[C@H](O)CNC(=O)c2ccc(Cl)cc2)O[C@@](OCCCSCCNC(=O)c2ccc(C(=O)NCCSCCCO[C@]3(C(=O)[O-])C[C@H](O)[C@@H](NC(C)=O)[C@H]([C@H](O)[C@H](O)CNC(=O)c4ccc(Cl)cc4)O3)cc2)(C(=O)[O-])C[C@@H]1O.[Na+].[Na+]` [Compound 72], 38; to `CC(=O)Nc1ccc(C(=O)NC[C@@H](O)[C@@H](O)[C@@H]2O[C@@](OCCCSCCNC(=O)c3ccc(C(=O)NCCSCCCO[C@]4(C(=O)[O-])C[C@H](O)[C@@H](NC(C)=O)[C@H]([C@H](O)[C@H](O)CNC(=O)c5ccc(NC(C)=O)cc5)O4)cc3)(C(=O)[O-])C[C@H](O)[C@H]2NC(C)=O)cc1.[Na+].[Na+]` [Compound 73], 13. `COc1ccccc1-c1ccc(C(=O)NC[C@@H](O)[C@@H](O)[C@@H]2O[C@@](OCCCSCCNC(=O)c3ccc(C(=O)NCCSCCCO[C@]4(C(=O)[O-])C[C@H](O)[C@@H](NC(C)=O)[C@H]([C@H](O)[C@H](O)CNC(=O)c5ccc(-c6ccccc6OC)cc5)O4)cc3)(C(=O)[O-])C[C@H](O)[C@H]2NC(C)=O)cc1.[Na+].[Na+]` [Compound 74] showed a rIP of 27. To `CC(=O)N[C@H]1[C@H]([C@H](O)[C@H](O)CNC(=O)c2ccc(-c3ccccc3Cl)cc2)O[C@@](OCCCSCCNC(=O)c2ccc(C(=O)NCCSCCCO[C@]3(C(=O)[O-])C[C@H](O)[C@@H](NC(C)=O)[C@H]([C@H](O)[C@H](O)CNC(=O)c4ccc(-c5ccccc5Cl)cc4)O3)cc2)(C(=O)[O-])C[C@@H]1O.[Na+].[Na+]` [Compound 75] belongs 3210. The figure for `CC(=O)N[C@H]1[C@H]([C@H](O)[C@H](O)CNC(=O)c2ccc(-c3ccc(C)cc3)cc2)O[C@@](OCCCSCCNC(=O)c2ccc(C(=O)NCCSCCCO[C@]3(C(=O)[O-])C[C@H](O)[C@@H](NC(C)=O)[C@H]([C@H](O)[C@H](O)CNC(=O)c4ccc(-c5ccc(C)cc5)cc4)O3)cc2)(C(=O)[O-])C[C@@H]1O.[Na+].[Na+]` [Compound 76] is 188.
